The test system of test [1] is A549. The test is described as follows: Cell proliferation assay (CellTiter-Glo). In kind it is cell-based. Particulars: Homo sapiens, NSCLC, 72 hours, 0.5% fetal bovine serum, read-out: antiproliferative activity IC50, A549. The method in brief: (§1)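 Inhibition of growth was assessed as loss of ATP signal; cultures at 5,000–10,000 cells per well received serial compound doses for 72 h with 0.5% FBS, then were lysed for 30 min before luminescence reading.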

Test [2] deals with SW403. Put plainly: Cell proliferation assay (CellTiter-Glo). In kind it is cell-based. Particulars: Homo sapiens, SW-403; Colon; 72 hours, 0.5% fetal bovine serum; read-out: antiproliferative activity IC50, SW403. The method in brief:
as §1

In test [3] the test system is H358. Put plainly: Cell proliferation assay (CellTiter-Glo). Particulars: Homo sapiens, NCI-H358; NSCLC; 72 hours, 0.5% fetal bovine serum; read-out: antiproliferative activity IC50, H358. It is filed as cell-based. The method, boiled down: as §1
In test [4] the test system is H2122. The test is described as follows: Cell proliferation assay (CellTiter-Glo). It is filed as cell-based. Particulars: Homo sapiens, NCI-H2122; NSCLC; 72 hours, 0.5% fetal bovine serum; read-out: antiproliferative activity IC50, H2122. The method, boiled down: as §1
Background: ATP-based viability assays read luminescence as a measure of living cells.

The test system of test [5] is OPM-2. Put plainly: Cell proliferation assay (CellTiter-Glo). It is filed as cell-based. Particulars: Homo sapiens, Multiple Myeloma, 72 hours, 0.5% fetal bovine serum, read-out: antiproliferative activity IC50, OPM-2. The method, boiled down:
as §1

Test [6] deals with T-84. Put plainly: Cell proliferation assay (CellTiter-Glo). It is filed as cell-based. Particulars: Homo sapiens, T84; Colon; 72 hours, 0.5% fetal bovine serum; read-out: antiproliferative activity IC50, T-84. The method in brief: as §1
For test [7], the system named is H292. The test is described as follows: Cell proliferation assay (CellTiter-Glo). Particulars: Homo sapiens, NCI-H292; NSCLC; 72 hours, 0.5% fetal bovine serum; read-out: antiproliferative activity IC50, H292. In kind it is cell-based. The method in brief:
as §1

The subject of test [8] is SWI-116. Put plainly: Cell proliferation assay (CellTiter-Glo). In kind it is cell-based. Particulars: Colon; 72 hours, 0.5% fetal bovine serum; read-out: antiproliferative activity IC50, SWI-116. The method, boiled down: as §1
The test system of test [9] is SW620. The test is described as follows: Cell proliferation assay (CellTiter-Glo). It is filed as cell-based. Particulars: Homo sapiens, SW-620; Colon; 72 hours, 0.5% fetal bovine serum; read-out: antiproliferative activity IC50, SW620. The method in brief:
as §1

Test [10] has as its target T1, PI3Kβ (p110β/p85α) (Homo sapiens, UniProt P42338).
T1 construct: His (N); made in house; host or cells: Baculovirus-infected Sf9 cells
The test is described as follows: PI3Kβ ADP-Glo assay. In kind it is biochemical. Particulars: 20 μM PIP2, 10 μM ATP, 90 minutes. The procedure: (B) an In Vitro Assay which Determines the Ability of a Test Compound to Inhibit PI3Kβ.
Activity of PI3Kβ was measured using ADP-Glo assay from Promega. […], a complex of N-terminal His-tagged recombinant full-length human p110β (GenBank, Accession No. NM_006219) and untagged recombinant full length human p85α (GenBank Accession No. XM—043865) were co-expressed in a Baculovirus infected Sf9 cell expression system. The ADP-Glo assay was performed to measure the amount of ADP generated from ATP hydrolysis coupled with PIP2 phosphorylation by the purified recombinant PI3Kβ (p110β/p85α). PI3Kβ was incubated with 20 μM PIP2 substrate in the reaction buffer (10 mM Tris-HCl, pH 7.5, 50 mM NaCl, 5 mM MgCl2, 10 μM ATP and 0.5% DMSO) for 90 minutes at room temperature. The ADP generated was then detected by ADP-Glo assay from Promega, a luminescent ADP detection assay. The ADP-Glo assay is performed in two steps; first, after the kinase reaction, ADP-Glo Reagent is added to terminate the kinase reaction and deplete the remaining ATP. Second, the Kinase Detection Reagent is added to simultaneously convert ADP to ATP and allow the newly synthesized ATP to be measured using a luciferase/luciferin reaction.
(ADP-Glo first removes unused ATP, then detects ADP through luciferase.)

For test [11], the target named is T2, mTor serine/threonine protein kinase (Homo sapiens, UniProt P42345).
T2 construct: FLAG; made in house; host or cells: Baculovirus expression system in Sf21 cells
The test is described as follows: mTor kinase radioisotope assay. It is filed as biochemical. Particulars: 70 uM ATP, 40 minutes; read-out: m-TOR IC50. The method in brief: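 FLAG-tagged full-length recombinant human mTor from baculovirus/Sf21, incubated with p70S6K C-terminal fragment (2 mg/ml) and 70 uM ATP plus 33P-ATP tracer in 50 mM HEPES pH 7.5, 3 mM MnCl2, 40 min at room temperature. Phosphoric acid stop, filtermat capture, scintillation counting; IC50 from sigmoidal dose-response fit.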

Test [12] relates to CaPan1. The test is described as follows: Cell proliferation assay (CellTiter-Glo). It is filed as cell-based. Particulars: Homo sapiens, CAPAN-1; Pancreas; 72 hours, 0.5% fetal bovine serum; read-out: antiproliferative activity IC50, CaPan1. The method, boiled down:
as §1

A value given as a limit tells only on which side of the number the result lay.

T1 sequence (P42338 whole entry): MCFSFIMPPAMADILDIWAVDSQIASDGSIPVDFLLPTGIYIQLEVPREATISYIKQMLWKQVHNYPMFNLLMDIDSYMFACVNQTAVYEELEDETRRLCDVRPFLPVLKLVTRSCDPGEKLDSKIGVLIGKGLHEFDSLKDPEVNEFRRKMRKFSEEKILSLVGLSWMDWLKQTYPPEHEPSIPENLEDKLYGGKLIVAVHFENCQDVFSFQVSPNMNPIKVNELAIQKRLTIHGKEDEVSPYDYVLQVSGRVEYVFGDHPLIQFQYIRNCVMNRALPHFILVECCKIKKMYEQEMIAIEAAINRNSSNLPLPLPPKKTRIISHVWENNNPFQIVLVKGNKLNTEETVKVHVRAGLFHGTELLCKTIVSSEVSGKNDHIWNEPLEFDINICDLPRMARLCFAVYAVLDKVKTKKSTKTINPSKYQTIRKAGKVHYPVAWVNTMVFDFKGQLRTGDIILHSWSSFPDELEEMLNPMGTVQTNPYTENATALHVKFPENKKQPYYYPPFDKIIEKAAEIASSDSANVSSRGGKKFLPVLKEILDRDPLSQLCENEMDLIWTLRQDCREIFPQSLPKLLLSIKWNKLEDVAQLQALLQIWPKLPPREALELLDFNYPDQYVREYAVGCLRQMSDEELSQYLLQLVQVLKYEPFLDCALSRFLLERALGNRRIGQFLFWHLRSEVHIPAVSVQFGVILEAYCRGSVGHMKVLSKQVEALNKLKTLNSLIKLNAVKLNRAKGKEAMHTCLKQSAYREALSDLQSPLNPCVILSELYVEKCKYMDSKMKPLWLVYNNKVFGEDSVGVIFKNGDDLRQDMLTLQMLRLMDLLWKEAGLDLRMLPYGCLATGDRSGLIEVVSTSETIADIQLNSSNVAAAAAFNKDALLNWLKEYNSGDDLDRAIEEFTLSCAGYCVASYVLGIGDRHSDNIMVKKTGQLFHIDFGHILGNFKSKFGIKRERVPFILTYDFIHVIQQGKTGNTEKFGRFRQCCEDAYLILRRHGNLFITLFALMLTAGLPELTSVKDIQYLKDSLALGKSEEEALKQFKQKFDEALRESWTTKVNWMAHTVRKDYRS
T1 sequence (P27986 whole entry partner): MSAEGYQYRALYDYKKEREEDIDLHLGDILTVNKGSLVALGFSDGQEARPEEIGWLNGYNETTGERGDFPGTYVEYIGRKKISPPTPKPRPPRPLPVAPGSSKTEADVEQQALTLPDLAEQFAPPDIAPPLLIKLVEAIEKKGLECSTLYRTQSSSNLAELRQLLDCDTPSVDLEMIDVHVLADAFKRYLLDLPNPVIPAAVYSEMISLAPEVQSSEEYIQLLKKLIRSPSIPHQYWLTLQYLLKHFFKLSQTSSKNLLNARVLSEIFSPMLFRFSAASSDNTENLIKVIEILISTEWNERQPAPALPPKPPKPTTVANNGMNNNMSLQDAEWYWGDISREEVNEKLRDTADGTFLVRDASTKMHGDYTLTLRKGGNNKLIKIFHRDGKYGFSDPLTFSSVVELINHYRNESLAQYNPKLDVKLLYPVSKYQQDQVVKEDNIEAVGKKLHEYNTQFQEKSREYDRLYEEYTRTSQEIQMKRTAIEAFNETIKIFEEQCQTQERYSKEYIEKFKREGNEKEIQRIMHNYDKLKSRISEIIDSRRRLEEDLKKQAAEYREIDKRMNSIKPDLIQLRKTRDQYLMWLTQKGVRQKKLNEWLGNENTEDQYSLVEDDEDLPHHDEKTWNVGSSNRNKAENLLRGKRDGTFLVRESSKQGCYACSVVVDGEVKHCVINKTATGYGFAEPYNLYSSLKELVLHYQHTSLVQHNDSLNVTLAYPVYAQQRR

For the compound `CNc1ccc(-c2nc(N3CCOCC3)c3sc(CN(C)c4ncc(C(=O)NO)cn4)cc3n2)cn1` [Compound 111, N-Hydroxy-2-(methyl((2-(6-(methylamino)pyridin-3-yl)-4-morpholinothieno[3,2-d]pyrimidin-6-yl)methyl)amino)pyrimidine-5-carboxamide], the IC50 in [1] was 10 to 100 nM; in [2], under 10 nM; in test [3], under 10 nM; in [4] it was under 10 nM; in test [5], under 10 nM; in [6], 10 to 100 nM. The IC50 is under 10 nM in [7]; under 10 nM in test [8]; under 10 nM in test [9]; 100 to 1000 nM in [10]; under 100 nM in test [11].

Regarding `CN(Cc1cc2nc(-c3ccc(N)cc3)nc(N3CCOCC3)c2s1)c1ncc(C(=O)NO)cn1` [Compound 150, 2-(((2-(4-aminophenyl)-4-morpholinothieno[3,2-d]pyrimidin-6-yl)methyl)(methyl)amino)-N-hydroxypyrimidine-5-carboxamide], the IC50 in test [1] was under 10 nM; in [2], under 10 nM; in test [3], under 10 nM; in test [4] it was under 10 nM; in test [5], under 10 nM; in test [12], 100 to 1000 nM. For the same compound, the IC50 in [6] is 10 to 100 nM; in test [7] it was under 10 nM; in test [8] it was under 10 nM; in [9], under 10 nM; in test [11], under 100 nM.

As to `CN(Cc1cc2nc(-c3cccc4[nH]ncc34)nc(N3CCOCC3)c2s1)c1ncc(C(=O)NO)cn1` [Compound 54, 2-(((2-(1H-indazol-4-yl)-4-morpholinothieno[3,2-d]pyrimidin-6-yl)methyl)(methyl)amino)-N-hydroxypyrimidine-5-carboxamide], the results for the IC50 in test [12] and in test [10] were 10 to 100 nM and under 100 nM, respectively.

In general, IC50 refers to the concentration that gives 50% inhibition.

The record behind these values is patent US20130102595A1 (Curis, Inc., priority 2011, published 2013).
